Experimental data reported in patent publication US20260256792A1, “TREATMENT OF CHRONIC SPONTANEOUS URTICARIA BY ADMINISTERING (R)-2-[3-[4-AMINO-3-(2-FLUORO-4-PHENOXY-PHENYL)PYRAZOLO[3,4-D]PYRIMIDIN-1-YL]PIPERIDINE-1-CARBONYL]-4-METHYL-4-[4-(OXETAN-3-YL)PIPERAZIN-1-YL]PENT-2-ENENITRILE” (priority 2023, published 2026).

Tested on: moderate-to-severe chronic spontaneous urticaria (CSU)
Assay: Phase 2 CSU study: hives severity score over 7 days (HSS7)
Assay type: in vivo, human
Set-up: key to HSS7 Change from baseline, Median / HSS7, Median / HSS7, Max / HSS7 Change from baseline, Q1 / HSS7 Change from baseline, Q3 / HSS7 Change from baseline, Max: 7-day sum of daily hive scores, each 0 = none to 3 = >50 hives
Description: The study comprises a 12 week, randomized, double-blind, placebo-controlled, multi-center, dose-ranging efficacy and safety phase, followed by a 40 week open label extension (OLE) phase (see FIG. 1).
The study consists of three phases and an optional OLE phase.
The UAS is a validated PRO measure. The daily UAS is the sum of the daily Hive Severity Score (HSS, ranging from 0=None to 3=more than 50 hives) and the daily Itch Severity Score (ISS, ranging from 0=None to 3=intense), the 2 key urticaria signs and symptoms which are wheals and itch. The daily UAS scores range from 0 to 6 point/day. Daily UAS scores are summed over 7-day period to create the UAS7, ranging from 0 to 42, and are composed of the HSS7 and ISS7 components. […] Patients were to complete the UAS using the e-diary. The e-diary was to be used once daily on the same time of each day recording of participant's answers to the urticaria activity score over 7 days (UAS7) questionnaire. For participants who entered the OLE phase, their answers to the UAS7 questionnaire were also to be collected from Week 20 to Week24 and from Week 48 to Week 52.
The following secondary endpoints were to be analyzed using the same approach as for the primary endpoint: • Change from baseline in UAS7 at Week 4 • Change from baseline in UAS7 at Week 12 (for US and US reference countries) • Change from baseline in ISS7 at Week 12 (except US and US reference countries) • Change from baseline in HSS7 at Week 12

[1] = 400 mg QPM, Week 10, ITT Population
[2] = 400 mg QPM, Week 11, ITT Population
[3] = 400 mg QPM, Week 12, ITT population
[4] = 400 mg QPM, Week 12, Omalizumab-Naïve Population
[5] = 400 mg TID, Omalizumab-Naïve Population, last block under Week 12, double-blind period, WOCF imputation
[6] = 400 mg TID, Week 1, ITT Population
[7] = 400 mg TID, Week 1, Omalizumab-Naïve Population
[8] = 400 mg TID, Week 2, ITT Population
[9] = 400 mg TID, Week 2, Omalizumab-Naïve Population
[10] = 400 mg TID, Week 3, ITT Population
[11] = 400 mg TID, Week 3, Omalizumab-Naïve Population
[12] = 400 mg TID, Week 4, ITT population
[13] = 400 mg TID, Week 4, Omalizumab-Naïve Population
[14] = 400 mg TID, Week 5, ITT Population
[15] = 400 mg TID, Week 5, Omalizumab-Naïve Population
[16] = 400 mg TID, Week 6, ITT Population
[17] = 400 mg TID, Week 6, Omalizumab-Naïve Population
[18] = 400 mg TID, Week 7, ITT Population
[19] = 400 mg TID, Week 7, Omalizumab-Naïve Population
[20] = 400 mg TID, Week 8, ITT population
[21] = 400 mg TID, Week 8, Omalizumab-Naïve Population

## CC(C)(C=C(C#N)C(=O)N1CCC[C@@H](n2nc(-c3ccc(Oc4ccccc4)cc3F)c3c(N)ncnc32)C1)N1CCN(C2COC2)CC1 [rilzabrutinib, (R)-2-[3-[4-amino-3-(2-fluoro-4-phenoxy-phenyl)pyrazolo[3,4-d]pyrimidin-1-yl]piperidine-1-carbonyl]-4-methyl-4-[4-(oxetan-3-yl)piperazin-1-yl]pent-2-enenitrile]
[1]
  HSS7 % Change difference for rilzabrutinib vs.placebo LS Mean (95% CI): −6.70 %
  HSS7 % Change from baseline LS Mean (SE): −34.70 (6.79) %
  HSS7 Change difference for rilzabrutinib vs.placebo LS Mean (95% CI): −0.56 (−3.19, 2.07)
  HSS7 Change from baseline LS Mean (SE): −5.16 (0.98)
  HSS7 Postbaseline Mean (SD): 9.82 (5.85)
400 mg QPM, Week 10, Omalizumab-Naïve Population
  HSS7 Postbaseline Mean (SD): 9.88 (5.93)
400 mg QPM, Week 10, Omalizumab-Naïve Population with Outlier Removed from Analysis
  HSS7 Postbaseline Mean (SD): 9.88 (5.93)
[2]
  HSS7 % Change difference for rilzabrutinib vs.placebo LS Mean (95% CI): −8.01 %
  HSS7 % Change from baseline LS Mean (SE): −34.56 (7.07) %
  HSS7 Change difference for rilzabrutinib vs.placebo LS Mean (95% CI): −0.43 (−3.08, 2.22)
  HSS7 Change from baseline LS Mean (SE): −4.97 (0.99)
  HSS7 Postbaseline Mean (SD): 10.15 (6.09)
400 mg QPM, Week 11, Omalizumab-Naïve Population
  HSS7 Postbaseline Mean (SD): 10.18 (6.18)
400 mg QPM, Week 11, Omalizumab-Naïve Population with Outlier Removed from Analysis
  HSS7 Postbaseline Mean (SD): 10.18 (6.18)
[3]
  HSS7 % Change difference for rilzabrutinib vs.placebo LS Mean (95% CI): −5.74 %
  HSS7 % Change from baseline LS Mean (SE): −33.48 (7.28) %
  HSS7 Change difference for rilzabrutinib vs.placebo LS Mean (95% CI): 0.14 (−2.62, 2.91)
  HSS7 Change from baseline LS Mean (SE): −4.75 (1.03)
[4]
  HSS7 Change difference for rilzabrutinib vs.placebo LS Mean (95% CI): −0.09 (−2.92, 2.75)
  HSS7 Change from baseline LS Mean (SE): −4.49 (1.04)
400 mg TID, ITT population
  median reduction in HSS7 at Week 12: −8.31 points
[5]
  HSS7, Max: 16.0
  HSS7, Min: 2.0
  HSS7 Change from baseline, Max: 0.0
  HSS7 Change from baseline, Mean (SD): −5.20 (3.11)
  HSS7 Change from baseline, Median: −6.00
  HSS7 Change from baseline, Min: −8.0
  HSS7 Change from baseline, Q1: −7.00
  HSS7 Change from baseline, Q3: −5.00
  HSS7 Percent change from baseline, Max: 0.0%
  HSS7 Percent change from baseline, Mean (SD): −38.89 (26.61) percent
  HSS7 Percent change from baseline, Median: −44.44%
  HSS7 Percent change from baseline, Min: −71.4%
  HSS7 Percent change from baseline, Q1: −50.00%
  HSS7 Percent change from baseline, Q3: −28.57%
[6]
  HSS7 % Change difference for rilzabrutinib vs.placebo LS Mean (95% CI): −30.65 %
  HSS7 % Change from baseline LS Mean (SE): −39.34 (5.49) %
  HSS7 Change from baseline LS Mean (SE): −6.09 (0.74)
  HSS7 Postbaseline Mean (SD): 7.76 (4.83)
[7]
  HSS7 % Change difference for rilzabrutinib vs.placebo LS Mean (95% CI): −27.41 %
  HSS7 % Change from baseline LS Mean (SE): −34.85 (6.00) %
  HSS7 Change from baseline LS Mean (SE): −5.32 (0.79)
  HSS7 Postbaseline Mean (SD): 8.26 (4.91)
400 mg TID, Week 1, Omalizumab-Naïve Population with Outlier Removed from Analysis
  HSS7 Postbaseline Mean (SD): 8.50 (4.76)
[8]
  HSS7 % Change difference for rilzabrutinib vs.placebo LS Mean (95% CI): −30.93 %
  HSS7 % Change from baseline LS Mean (SE): −47.49 (5.64) %
  HSS7 Change difference for rilzabrutinib vs.placebo LS Mean (95% CI): −4.24 (−6.33, −2.15)
  HSS7 Change from baseline LS Mean (SE): −7.16 (0.77)
  HSS7 Postbaseline Mean (SD): 6.61 (5.06)
[9]
  HSS7 % Change difference for rilzabrutinib vs.placebo LS Mean (95% CI): −27.36 %
  HSS7 % Change from baseline LS Mean (SE): −42.63 (6.08) %
  HSS7 Postbaseline Mean (SD): 7.25 (5.05)
400 mg TID, Week 2, Omalizumab-Naïve Population with Outlier Removed from Analysis
  HSS7 Postbaseline Mean (SD): 7.44 (5.01)
[10]
  HSS7 % Change difference for rilzabrutinib vs.placebo LS Mean (95% CI): −29.56 %
  HSS7 % Change from baseline LS Mean (SE): −48.71 (5.82) %
  HSS7 Change difference for rilzabrutinib vs.placebo LS Mean (95% CI): −3.79 (−5.97, −1.61)
  HSS7 Change from baseline LS Mean (SE): −7.29 (0.81)
  HSS7 Postbaseline Mean (SD): 6.49 (4.72)
[11]
  HSS7 % Change difference for rilzabrutinib vs.placebo LS Mean (95% CI): −27.37 %
  HSS7 % Change from baseline LS Mean (SE): −45.07 (6.36) %
  HSS7 Postbaseline Mean (SD): 7.03 (4.82)
400 mg TID, Week 3, Omalizumab-Naïve Population with Outlier Removed from Analysis
  HSS7 Postbaseline Mean (SD): 7.03 (4.89)
[12]
  HSS7 % Change difference for rilzabrutinib vs.placebo LS Mean (95% CI): −29.20 %
  HSS7 % Change from baseline LS Mean (SE): −47.90 (5.95) %
  HSS7 Change difference for rilzabrutinib vs.placebo LS Mean (95% CI): −3.53 (−5.74, −1.31)
  HSS7 Change from baseline LS Mean (SE): −6.98 (0.82)
  HSS7 Postbaseline Mean (SD): 6.39 (4.92)
[13]
  HSS7 % Change difference for rilzabrutinib vs.placebo LS Mean (95% CI): −28.82 %
  HSS7 % Change from baseline LS Mean (SE): −44.69 (6.50) %
  HSS7 Postbaseline Mean (SD): 6.85 (4.96)
400 mg TID, Week 4, Omalizumab-Naïve Population with Outlier Removed from Analysis
  HSS7 Postbaseline Mean (SD): 6.85 (4.96)
[14]
  HSS7 % Change difference for rilzabrutinib vs.placebo LS Mean (95% CI): −23.13 %
  HSS7 % Change from baseline LS Mean (SE): −52.29 (5.80) %
  HSS7 Change difference for rilzabrutinib vs.placebo LS Mean (95% CI): −3.09 (−5.36, −0.81)
  HSS7 Change from baseline LS Mean (SE): −7.73 (0.84)
  HSS7 Postbaseline Mean (SD): 6.02 (5.11)
[15]
  HSS7 % Change difference for rilzabrutinib vs.placebo LS Mean (95% CI): −18.86 %
  HSS7 % Change from baseline LS Mean (SE): −49.42 (6.23) %
  HSS7 Postbaseline Mean (SD): 6.49 (5.14)
400 mg TID, Week 5, Omalizumab-Naïve Population with Outlier Removed from Analysis
  HSS7 Postbaseline Mean (SD): 6.49 (5.14)
[16]
  HSS7 % Change difference for rilzabrutinib vs.placebo LS Mean (95% CI): −28.20 %
  HSS7 % Change from baseline LS Mean (SE): −52.27 (6.61) %
  HSS7 Change difference for rilzabrutinib vs.placebo LS Mean (95% CI): −3.48 (−5.94, −1.02)
  HSS7 Change from baseline LS Mean (SE): −7.75 (0.91)
  HSS7 Postbaseline Mean (SD): 6.14 (5.55)
[17]
  HSS7 % Change difference for rilzabrutinib vs.placebo LS Mean (95% CI): −24.11 %
  HSS7 % Change from baseline LS Mean (SE): −48.15 (7.17) %
  HSS7 Postbaseline Mean (SD): 6.78 (5.55)
400 mg TID, Week 6, Omalizumab-Naïve Population with Outlier Removed from Analysis
  HSS7 Postbaseline Mean (SD): 6.78 (5.55)
[18]
  HSS7 % Change difference for rilzabrutinib vs.placebo LS Mean (95% CI): −27.16 %
  HSS7 % Change from baseline LS Mean (SE): −51.12 (6.01) %
  HSS7 Change difference for rilzabrutinib vs.placebo LS Mean (95% CI): −3.58 (−5.87, −1.29)
  HSS7 Change from baseline LS Mean (SE): −7.66 (0.86)
  HSS7 Postbaseline Mean (SD): 6.18 (4.44)
[19]
  HSS7 % Change difference for rilzabrutinib vs.placebo LS Mean (95% CI): −24.63 %
  HSS7 Postbaseline Mean (SD): 6.40 (4.54)
400 mg TID, Week 7, Omalizumab-Naïve Population with Outlier Removed from Analysis
  HSS7 Postbaseline Mean (SD): 6.40 (4.54)
[20]
  HSS7 % Change difference for rilzabrutinib vs.placebo LS Mean (95% CI): −25.27 %
  HSS7 % Change from baseline LS Mean (SE): −54.34 (6.35) %
  HSS7 Change difference for rilzabrutinib vs.placebo LS Mean (95% CI): −3.06 (−5.54, −0.58)
  HSS7 Change from baseline LS Mean (SE): −7.81 (0.92)
  HSS7 Postbaseline Mean (SD): 5.60 (4.81)
[21]
  HSS7 % Change difference for rilzabrutinib vs.placebo LS Mean (95% CI): −22.36 %
  HSS7 % Change from baseline LS Mean (SE): −50.37 (7.07) %
